Data: patent publication US20170066780A1, “INHIBITORS OF EZH2” (Eli Lilly and Company, priority 2015, published 2017)
pIC50: −log10 of the molar value.

What was measured:
Experiment in all cases: Ovarian cancer cell line proliferation assay (CellTiter-Glo)
Format in all cases: cell-based
[1] = system: A2780; details: Homo sapiens, 240 h, 7- or 10-day assay
Method: (§1) Test ovarian cancer cell lines for response to Example 1 or Example 38 in a 7- or 10-day proliferation assay. Optimize each cell line for cell number and splitting schedule which maximizes log phase growth in 96-well format during the 7 or 10-day period. Plate cells in a 96-well black, clear bottom, poly-D-lysine-coated 96-well plate (BD BioSciences; BD BIOCOAT™ Cellware, Poly-Lysine, Cat. #354640) on day 0 in a total volume of 90 μL cell culture media and incubate at 37° C./5% CO2 for 18-24 hrs. On day 1, prepare a compound dilution plate by the addition of 150 μL media containing 2% dimethyl sulfoxide (DMSO; Sigma-Aldrich Cat. #D2438) to columns 3-12 of a 96-well clear flat bottom plate (CORNING® COSTAR® cell culture plate Cat #3596). Prepare 10 mM stocks of Example 1 or Example 38 in 100% DMSO, and further dilute to a working concentration of 200 μM in cell culture media. Add 225 μL of Example 1 or Example 38 to column 2 of the compound dilution plate, and prepare 1:3 10-point serial dilutions of test compound with columns 3 through 12. Add 10 μL of serially diluted compound to cell plates, giving a final test compound concentration range of 1 nM to 20 μM and a final concentration of DMSO of 0.2%. At the end of the 7- or 10-day assay period, subject cells to the CELLTITER-GLO® Luminescent Cell Viability Assay (Promega, Cat. #G7570) as follows: 1) Thaw the CELLTITER-GLO® buffer and equilibrate to room temperature; 2) Equilibrate the lyophilized CELLTITER-GLO® substrate to room temperature; 3) Transfer CELLTITER-GLO® buffer to substrate bottle to form the CELLTITER-GLO® reagent; 4) Equilibrate cell plates to room temperature; 5) For adherent cells only—remove medium from cell plates; 6) Add 25 μL CELLTITER-GLO® reagent to each well; 7) Let plates incubate an additional 20-30 min at room temperature; 8) Read luminescence using the Perkin Elmer EnVision 2104 Multi Detection Microplate Reader.

[2] = system: COV-434; details: COV434, 240 h, 7- or 10-day assay
Method: as §1

[3] = system: Caov-3; details: Homo sapiens, 240 h, 7- or 10-day assay
Method: as §1

[4] = system: HEC59; details: 240 h, 7- or 10-day assay
Method: as §1

[5] = system: HeyA8; details: HEY A8, 240 h, 7- or 10-day assay
Method: as §1

[6] = system: OVCAR3; details: Homo sapiens, OVCAR-3, 240 h, 7- or 10-day assay
Method: as §1

[7] = system: SKOV3; details: Homo sapiens, SK-OV-3, 240 h, 7- or 10-day assay
Method: as §1

[8] = system: TOV-112D; details: Homo sapiens, TOV112D, 240 h, 7- or 10-day assay
Method: as §1

[9] = system: TOV-21G; details: Homo sapiens, TOV21G, 240 h, 7- or 10-day assay
Method: as §1

`COC1CN([C@H]2CC[C@H]([C@@H](C)c3sc4c(c3C)C(=O)N(Cc3c(C)cc(C)[nH]c3=O)CCC4)CC2)C1` [Example 38, 5-[(4,6-Dimethyl-2-oxo-1,2-dihydropyridin-3-yl)methyl]-2-{(1R)-1-[trans-4-(3-methoxyazetidin-1-yl)cyclohexyl]ethyl}-3-methyl-5,6,7,8-tetrahydro-4H-thieno[3,2-c]azepin-4-one] showed a pIC50 [1] of 6.70, a pIC50 [2] of 7.70 and a pIC50 [3] of 5.10. It also gave a pIC50 [4] of under 4.70, a pIC50 [5] of under 4.70 and a pIC50 [6] of 5.07. It also gave a pIC50 [7] of under 4.70, a pIC50 [8] of 6.70 and a pIC50 [9] of 7.00.
